Data: patent publication US20040010001A1, “Methods and compositions for modulating cell proliferation and cell death” (priority 1999, published 2004)
Like-named read-outs stand apart in the source and are kept apart here.

How the values were obtained:
[1] = system: human PC3-LN lung metastases
Description: Animal care was in accordance with the guidelines at the Ohio State University. Several human tumor models were used, including (a) lung metastases derived from intravenous injection of human PC3-LN tumor cells, (b) lung tumors derived from direct injection of human PC3 cells in lungs, and (c) subcutaneously implanted PC3 tumors. Four studies were performed. In all studies, drug treatment was administered intravenously via a tail vein, after the tumor was established. The first and second studies used the intravenous PC3-LN lung metastasis model. Briefly, human PC3-LN cells ([…] in 0.1 ml physiologic saline) were injected intravenously, via a tail vein, into immunodeficient mice. […] Treatment was given twice weekly for three weeks. […] Three days after completion of drug treatments, animals were euthanized and their lungs removed, fixed in Bouin's solution to visualize tumor nodules, and then processed for histologic evaluation. […] The lung surface area (counted as number of pixel) occupied by the tumor was calculated as a fraction of the total lung area, using Adobe PhotoShop. The number of tumor cells in residual tumors and the fraction of apoptotic cells in each tumor were also determined microscopically. Because apoptotic cells disappear over time, a second measure of the extent of apoptosis was the density of non-apoptotic cells in the residual tumors. This was determined by counting the number of non-apoptotic tumor cells in randomly selected microscopic fields at 400× magnification. […] In the case of combination therapy where fewer than 5 tumor nodules remained per animal, all residual cells (between 20 to 600 cells per animal) were counted.

rat MAT-LyLu tumor cells [2] = assay: Cytotoxicity of suramin alone, reduction of BrdU incorporation; type: cell-based; conditions: read-out: IC50, suramin concentration required to result in 50% reduction in BrdU incorporation
rat MAT-LyLu tumor cells [3] = assay: Reversal of CM-induced resistance by FGF antibodies and suramin, BrdU incorporation; type: cell-based; conditions: CM of histocultures of lung metastases
Description: The source of CM was lung histocultures for the aFGF experiment, and early monolayer lung cultures for the bFGF experiment. The study used four controls: no CM (left solid curves, open circles); addition of 5 μg/ml aFGF or bFGF antibody but no CM (inverted filled triangle, overlaps with the left control curve); addition of CM but no antibody (right solid curves, open square); addition of CM plus a nonspecific antibody, IgG (5 μg/ml, filled diamond, overlaps with the right CM-control curve). Dotted curves, from right to left, addition of aFGF or bFGF antibody concentrations of 0.05 μg/ml (filled circle); 0.1 μg/ml (filled square); 1 or 0.5 μg/ml (filled triangle); and 5 μg/ml (open inverted triangle). […] Similar results were also found for human PC3 prostate tumor cells.
The first study used specific inhibitors of extracellular aFGF and bFGF, i.e., monoclonal antibodies (FIG. 2A). […] In the presence of the active CM, the bFGF antibody produced a concentration-dependent reversal of the CM-induced chemoresistance, with complete reversal by 5 microgram/ml antibody, whereas a nonspecific antibody (i.e., non-immune rabbit IgG) had no effect. For aFGF, the antibody treatment partially reversed the CM-induced resistance; the maximum reversal was about 60% that was obtained with 1 microgram/ml antibody with no significant additional reversal at a 5-fold higher concentration. The second study evaluated the effect of removing aFGF and/or bFGF from the active CM by immunoprecipitation. Removal of bFGF abolished the resistance, whereas removal of aFGF only partially reversed the CM effect. These two studies indicate that both aFGF and bFGF were involved in the resistance, but had different roles.
This study was performed using the rat MAT-LyLu tumor cells as the model tumor cells and using doxorubicin and paclitaxel as the model anticancer agents. The CM used to induce resistance was collected from histocultures of lung metastases (see Table 1). Five microgram/ml anti-bFGF antibody was added.

in vivo = conditions: mouse, iv, 10 mg/kg
Description: (§1) Animal care was in accordance with the guidelines at the Ohio State University. Several human tumor models were used, including (a) lung metastases derived from intravenous injection of human PC3-LN tumor cells, (b) lung tumors derived from direct injection of human PC3 cells in lungs, and (c) subcutaneously implanted PC3 tumors. Four studies were performed. In all studies, drug treatment was administered intravenously via a tail vein, after the tumor was established. The first and second studies used the intravenous PC3-LN lung metastasis model. Briefly, human PC3-LN cells ([…] in 0.1 ml physiologic saline) were injected intravenously, via a tail vein, into immunodeficient mice. […] Treatment was given twice weekly for three weeks. […] The lung surface area (counted as number of pixel) occupied by the tumor was calculated as a fraction of the total lung area, using Adobe PhotoShop. The number of tumor cells in residual tumors and the fraction of apoptotic cells in each tumor were also determined microscopically. […] This was determined by counting the number of non-apoptotic tumor cells in randomly selected microscopic fields at 400× magnification. […] In the case of combination therapy where fewer than 5 tumor nodules remained per animal, all residual cells (between 20 to 600 cells per animal) were counted.

[4] = system: Human prostate PC3 tumor cells; assay: cells; type: cell-based; conditions: read-out: IC50, suramin concentration required to result in 50% reduction in BrdU incorporation
Description: PC3 and PC3-LN tumor cells. […] […].
Cells are harvested from subconfluent cultures using trypsin and resuspended in fresh medium before plating. […] Cells are plated in 96 well microtiter plates at a density such that confluence would not be achieved at the end of the drug treatment period. Cells are allowed to attach to the plate surface by growing in drug-free medium for 20 to 24 hr. […] The drug effect should be measured as inhibition of BrdU incorporation, e.g., according to the Cell Proliferation ELISA BrdU (Boehringer Mannheim).

[5] = system: rat MAT-LyLu tumor cells, human prostate PC3 tumor cells, PC3-LN cells; assay: Reversal of CM/FGF-induced resistance by suramin; type: cell-based
Description: The study was performed using rat MAT-LyLu tumor cells (shown here) and human prostate PC3 and PC3-LN tumor cells. The cytotoxic effect was detected by measuring the changes in BrdU incorporation in treated samples relative to control samples.

[6] = system: human prostate PC3-LN tumor cells; assay: cells; type: cell-based; conditions: read-out: IC50, suramin concentration required to result in 50% reduction in BrdU incorporation
clinical = conditions: human, plasma, 240 mg/m^2
human PC3 lung tumors = assay: Lung tumors established by direct injection of PC3 cells into the lungs of immunodeficient mice; type: in vivo; conditions: suramin alone, three doses of 20 mg/kg (n=3)
Description: as §1

[7] = Jodrell et al (1994); cited from earlier work
subcutaneous PC3 tumors = conditions: suramin 10 mg/kg, doxorubicin 5 mg/kg, twice weekly for 3 weeks
Description: Briefly, PC3 cells (5×10^6 cells) were injected subcutaneously.

[8] = doxorubicin study: suramin 10 mg/kg, doxorubicin 5 mg/kg, intravenous twice weekly for three weeks
[9] = paclitaxel study: suramin 10 mg/kg, paclitaxel 15 mg/kg, intravenous twice weekly for three weeks
[10] = suramin 10 mg/kg, doxorubicin 5 mg/kg, intravenous twice weekly for three weeks

SMILES: Cc1ccc(C(=O)Nc2ccc(S(=O)(=O)O)c3cc(S(=O)(=O)O)cc(S(=O)(=O)O)c23)cc1NC(=O)c1cccc(NC(=O)Nc2cccc(C(=O)Nc3cc(C(=O)Nc4ccc(S(=O)(=O)O)c5cc(S(=O)(=O)O)cc(S(=O)(=O)O)c45)ccc3C)c2)c1 [Suramin]
- % Apoptotic cells per tumor [1, 8]: 10 ± 7%
- Density of nonapoptotic cells in residual tumors, cells/field [1, 8]: 139 ± 30 cells/field
- % Apoptotic cells per tumor [1, 9]: 4 ± 3%
- Density of nonapoptotic cells in residual tumors, cells/field [1, 9]: 185 ± 104 cells/field
- antitumor effect and toxicity of suramin alone ([1]; suramin 10 mg/kg alone): no significant antitumor effect, nor toxicity
- % Lung surface area occupied by tumor [1, 10]: 7 ± 3%
- % Tumor-free animals [1, 10]: 0%
- IC50 (rat MAT-LyLu tumor cells [2]): 235 µM
- suramin concentration that completely inhibited the bFGF-induced resistance (rat MAT-LyLu tumor cells [3]): 1 to 2 µM
- concentration at 72 h (in vivo): ~10 µM
- IC50 [4]: 93 µM
- concentration needed to fully reverse the FGF-induced resistance [5]: 1 to 15 µM
- IC50 [6]: 98 µM
- concentration at 0 h (clinical): ~90 µg/mL
- concentration at 96 h (clinical): ~18 µg/mL
- animals free of tumors (human PC3 lung tumors): No animals
- total body clearance [7]: 0.0095 liter/hour/m^2
- effect on tumor growth (subcutaneous PC3 tumors): no antitumor activity
